“Also recorded” adds a separate entry of the source. Read-outs that look alike come from different tables or passages of the source.
How the values were obtained:
newborn piglets = settings: intravenous 5 mg/kg/h over six hours (30 mg/kg), 10 minutes after resuscitation; cited from earlier work
[1] = Plasma melatonin levels in piglets (direct radioimmunoassay); type: in vivo; settings: melatonin-treated piglets; therapeutic range from Robertson et al. 2013
[2] = system: rat organotypic hippocampal slice cultures; assay: Oxygen-glucose deprivation (OGD) in organotypic hippocampal slice cultures, cell death by propidium iodide incorporation; type: cell-based; settings: for Cell death, estimated by propidium iodide incorporation, induced by OGD: OGD alone 90.8 ± 7.6%
Description: Concentration-response studies were aimed at detecting the range of concentration of melatonin resulting in neuroprotection against oxygen-glucose deprivation (OGD), an experimental model simulating hypoxia-ischemia and reperfusion. Ischemia was simulated in vitro by anoxia combined with a glucose-free media (OGD) in rat organotypic hippocampal slice cultures.

[3] = Solubilisation of melatonin with Captisol, with or without PEG, in different vehicles; type: physicochemical; settings: Captisol solutions in WFI, glucose 10% solution or phosphate buffer
Protocol: The first set of experiments was aimed to assess the possibility to solubilise melatonin with different quantity of sulfobutylether-β-cyclodextrin (Captisol™). The test was performed by the addition of melatonin. In the solution containing the Captisol at different concentrations up to presence of undissolved material on the bottom; the solution was filtered and analysed. These tests were performed with three different vehicles: water for injection (WFI), glucose 10% solution and phosphate buffer. In a second set of experiments, PEG with different molecular weights (PEG 300 and PEG 400) was added to verify the possibility to reduce the amount of Captisol used for the dissolution. The results of the first set of experiments, were obtained measuring the assay in formulation at the higher solubility limits having on the bottom some undissolved particles. […] Captisol concentration of 5% was identified as a suitable one, and confirmed by the other results.

[4] = system: piglet model of neonatal asphyxia; settings: for NTP/epp (whole forebrain, 9.4T MRS): 24h after hypoxia-ischaemia, melatonin 15 mg/kg i.v. over 6h at 2h and 26h plus cooling, p=0.038; for cell death (TUNEL positive cells) in the sensorimotor cortex: p<0.003, p=0.003 (Fig. 4)
Protocol: Objective: To assess neuroprotection of intravenous melatonin (15 mg/kg) infused slowly over 6h (2.5 mg/kg/h) initiated 2 h after hypoxia-ischaemia in a piglet model of neonatal asphyxia (Fig. 1). Primary outcome measures were TUNEL immuno-labelling of cell death over 9 brain regions (Fig. 2). Secondary outcomes were amplitude-integrated electroencephalography(aEEG) recovery, and magnetic resonance spectroscopy (MRS) biomarkers (NTP/epp and lactate/N acetyl aspartate).
During hypoxia-ischemia the β-NTP peak height was continuously monitored using in-house Matlab (Mathworks) software. At the point at which β-NTP had fallen to 50% of its baseline value, FiO2 was increased to 9%. […] The head was immobilized in a stereotactic frame for MRS acquisition. […] After surgical preparation, multichannel six-lead EEG monitoring (Nicolet, Care Fusion, Wisconsin, USA) was acquired at baseline and throughout the periods between MRS data acquisitions. Filtered amplitude-integrated EEG recordings were classified according to the pattern classification. A score of 0 was flat trace; 1, continuous low voltage; 2, burst suppression; 3, discontinuous normal voltage; and 4, continuous normal voltage, at baseline and then every hour after hypoxia-ischemia. […] Blood samples were collected in lithium/heparin tubes and centrifuged immediately after collection. Plasma was separated and then stored at - 20°C before analysis. Melatonin was routinely measured by direct radioimmunoassay.

## COc1ccc2[nH]cc(CCNC(C)=O)c2c1 [melatonin, N-[2-(5-Methoxy-1H-indol-3-yl)ethyl] acetamide]
Newborn piglets
  hypothermic neuroprotection: increases hypothermic neuroprotection
[1]
  plasma levels: within the expected therapeutic range
[2]; 3 µM melatonin
  Cell death, estimated by propidium iodide incorporation, induced by OGD: 57.6 ± 6.9%
[2]; 10 µM melatonin
  Cell death, estimated by propidium iodide incorporation, induced by OGD: 60.9 ± 7.4%
[2]; 25 µM melatonin
  Cell death, estimated by propidium iodide incorporation, induced by OGD: 47.3 ± 3.8%
[2]; 50 µM melatonin
  Cell death, estimated by propidium iodide incorporation, induced by OGD: 38.9 ± 4.2%
[2]; all doses tested with the exception of 1 uM, p<0.01 Dunnet's test after ANOVA
  statistical analysis of the effect on OGD-induced cell death: significant effect
[2]; hippocampal slice cultures of neonatal rats, 1-50 µM
  reduction of OGD-induced cell death: concentration-dependent manner
[3]
  influence of glucose or buffer as vehicle on solubility: does not influence the solubility
[4]; 24 and 48h after hypoxia-ischaemia
  3T MRS: NTP/epp and PCr/Pi in whole forebrain, Lac/NAA in thalamus and white matter: no difference in any ratio
[4]; versus vehicle
  NTP/epp (whole forebrain, 9.4T MRS): ameliorated the NTP/ePP decline
[4]; versus vehicle, listed as Melatonin
  NTP/epp (whole forebrain, 9.4T MRS): higher
[4]; baseline, 24 and 48h after hypoxia-ischaemia, melatonin 5 and 15 mg/kg groups versus vehicle, apart from 24h NTP/epp
  9.4T MRS: NTP/epp and PCr/Pi in whole forebrain, Lac/NAA in thalamus and white matter: no difference
[4]; between groups at any time point
  group mean hourly aEEG scores: no difference
[4]; melatonin 5 mg/kg/24h i.v. over 6h started 2h after hypoxia-ischaemia plus cooling
  brain protection: no protection
[4]; melatonin 15 mg/kg/24h i.v. over 6h started 2h after hypoxia-ischaemia plus cooling, versus vehicle, 48h
  cell death (TUNEL positive cells) in the sensorimotor cortex: significant protection; also recorded: significant reduction in TUNEL positive cells
[4]; melatonin 15 mg/kg/24h i.v. over 6h started 2h after hypoxia-ischaemia plus cooling, versus vehicle, 48h, listed as Melatonin
  cell death (TUNEL positive cells) in the sensorimotor cortex: reduced cell death
[4]; melatonin 15 mg/kg/24h i.v. over 6h started 2h after hypoxia-ischaemia plus cooling, versus vehicle, 48h, p=0.068, p=0.069 (Fig. 4)
  cell death (TUNEL positive cells) across the whole brain: trend of reduced cell death; also recorded: trend to overall brain reduced TUNEL positive cells; also recorded: trend towards reduced TUNEL positive cells
[4]; piglets, melatonin i.v. infusion plus cooling
  physiological parameters monitored, including mean arterial pressure and inotrope use: did not affect

Source: EP3595655B1, “THERAPEUTIC DOSAGE AND REGIMEN FOR MELATONIN” (Chiesi Farmaceutici S.p.A., priority 2017, dated 2018)
